± gives the expanded uncertainty stated by the source.
Key:
[1] = wn = mass fraction of the nth substance listed; conditions: 298.15 K, 101 kPa, Liquid, Alternating current cell with electrodes
[2] = 298.15 K, Liquid; for electrical conductivity: 101 kPa, Alternating current cell with electrodes; for viscosity / mass density: 101.33 kPa; for viscosity: Cone and plate viscometry; for mass density: Pycnometric method

O=C[O-].c1ccc2[nH+]cccc2c1 [quinolinium formate] + O
[1]
Conditions | electrical conductivity [S/m]
w2 = 0 | 0.415 ± 0.033
w2 = 0.0566 | 0.621 ± 0.05
w2 = 0.0909 | 0.854 ± 0.068
w2 = 0.1667 | 1.38 ± 0.11
w2 = 0.2 | 1.59 ± 0.13
w2 = 0.2593 | 2.01 ± 0.16
w2 = 0.3103 | 2.47 ± 0.2
w2 = 0.3548 | 2.84 ± 0.23
w2 = 0.3939 | 3.1 ± 0.25
w2 = 0.4444 | 3.49 ± 0.28
w2 = 0.4595 | 3.59 ± 0.29
w2 = 0.5 | 3.81 ± 0.3
w2 = 0.5652 | 4.11 ± 0.33
w2 = 0.6 | 4.23 ± 0.34
w2 = 0.6552 | 4.3 ± 0.34
w2 = 0.7059 | 4.26 ± 0.34
w2 = 0.75 | 4.12 ± 0.33
w2 = 0.8 | 3.94 ± 0.32
w2 = 0.8571 | 3.37 ± 0.27
w2 = 0.9 | 2.75 ± 0.22

Cc1ccc[n+](C)c1C.O=C[O-] [1,2,3-trimethylpyridinium formate] + O
[1]
Conditions | electrical conductivity [S/m]
w2 = 0 | 0.68 ± 0.054
w2 = 0.0476 | 0.837 ± 0.067
w2 = 0.0909 | 0.963 ± 0.077
w2 = 0.1666 | 1.33 ± 0.11
w2 = 0.1999 | 1.48 ± 0.12
w2 = 0.2592 | 1.88 ± 0.15
w2 = 0.3103 | 2.31 ± 0.18
w2 = 0.3547 | 2.69 ± 0.21
w2 = 0.4117 | 3.23 ± 0.26
w2 = 0.4594 | 3.62 ± 0.29
w2 = 0.4999 | 3.95 ± 0.32
w2 = 0.5555 | 4.37 ± 0.35
w2 = 0.5999 | 4.65 ± 0.37
w2 = 0.6551 | 4.74 ± 0.38
w2 = 0.7014 | 4.75 ± 0.38
w2 = 0.7499 | 4.75 ± 0.38
w2 = 0.7999 | 4.51 ± 0.36
w2 = 0.8571 | 3.85 ± 0.31
w2 = 0.9 | 3.13 ± 0.25
w2 = 0.95 | 1.93 ± 0.15

Cc1cccc[n+]1C.O=C[O-] [1,2-dimethylpyridinium formate]
[2]
Conditions | electrical conductivity [S/m] | mass density [kg/m3] | viscosity [mPa·s]
– | 1.04 ± 0.083 | 1020.9 ± 60 | 2.61

O [water] + CCCC(C)[NH3+].O=C[O-]
Conditions | electrical conductivity [S/m]
[1], w1 = 1 | 0.0001 ± 0.0001

C1CC[NH2+]C1.O=C[O-] [pyrrolidinium formate]
[2]
Conditions | electrical conductivity [S/m] | viscosity [mPa·s]
– | 3.29 ± 0.26 | 2.5

O [water] + C1CC[NH2+]C1.CCCCCCCC(=O)[O-]
Conditions | electrical conductivity [S/m]
[1], w1 = 1 | 0.0001 ± 0.0001

C1CC[NH2+]C1.CC(=O)[O-] [pyrrolidinium acetate] + O
[1]
Conditions | electrical conductivity [S/m]
w2 = 0 | 0.594 ± 0.048
w2 = 0.0474 | 0.685 ± 0.055
w2 = 0.0906 | 0.716 ± 0.057
w2 = 0.1661 | 1.04 ± 0.083
w2 = 0.1994 | 1.11 ± 0.089
w2 = 0.2585 | 1.53 ± 0.12
w2 = 0.3095 | 1.93 ± 0.15
w2 = 0.3539 | 2.32 ± 0.18
w2 = 0.393 | 2.64 ± 0.21
w2 = 0.4585 | 3.24 ± 0.26
w2 = 0.499 | 3.52 ± 0.28
w2 = 0.5546 | 3.92 ± 0.31
w2 = 0.599 | 4.09 ± 0.33
w2 = 0.6543 | 4.3 ± 0.34
w2 = 0.7007 | 4.37 ± 0.35
w2 = 0.7554 | 4.43 ± 0.35
w2 = 0.8033 | 4.23 ± 0.34
w2 = 0.8328 | 4.02 ± 0.32

CC[NH+](C(C)C)C(C)C.O=C[O-] [ethyldiisopropylammonium formate]
[2]
Conditions | electrical conductivity [S/m] | mass density [kg/m3] | viscosity [mPa·s]
– | 0.586 ± 0.047 | 1014.4 ± 60 | 18

O [water] + C1CC[NH2+]C1.CCCCCCC(=O)[O-]
Conditions | electrical conductivity [S/m]
[1], w1 = 1 | 0.0001 ± 0.0001

C1CC[NH2+]C1.CCCCCC(=O)[O-] [pyrrolidinium hexanoate] + O
[1]
Conditions | electrical conductivity [S/m]
w2 = 0 | 0.204 ± 0.016
w2 = 0.0476 | 0.568 ± 0.045
w2 = 0.0909 | 0.95 ± 0.076
w2 = 0.1489 | 1.54 ± 0.12
w2 = 0.1667 | 1.73 ± 0.14
w2 = 0.1837 | 1.91 ± 0.15
w2 = 0.2 | 2.01 ± 0.16
w2 = 0.2308 | 2.21 ± 0.18
w2 = 0.2593 | 2.4 ± 0.19
w2 = 0.2727 | 2.48 ± 0.2
w2 = 0.2982 | 2.61 ± 0.21
w2 = 0.3103 | 2.65 ± 0.21
w2 = 0.3333 | 2.76 ± 0.22
w2 = 0.3548 | 2.86 ± 0.23
w2 = 0.3846 | 2.91 ± 0.23
w2 = 0.403 | 2.91 ± 0.23
w2 = 0.4521 | 2.92 ± 0.23
w2 = 0.5 | 2.89 ± 0.23
w2 = 0.5294 | 2.85 ± 0.23
w2 = 0.5506 | 2.81 ± 0.23
w2 = 0.601 | 2.53 ± 0.2
w2 = 0.7015 | 1.96 ± 0.16
w2 = 0.8004 | 1.21 ± 0.097
w2 = 0.9002 | 0.551 ± 0.044

CCCC(C)[NH3+].O=C[O-] (configuration not stated) [2-pentanaminium formate]
[2]
Conditions | electrical conductivity [S/m] | mass density [kg/m3]
– | 0.036 ± 0.003 | 1163 ± 60

CCCC(C)[NH3+].O=C[O-] (configuration not stated) [2-pentanaminium formate] + O
[1]
Conditions | electrical conductivity [S/m]
w2 = 0 | 0.036 ± 0.003
w2 = 0.056 | 0.121 ± 0.01
w2 = 0.1005 | 0.197 ± 0.016
w2 = 0.1623 | 0.342 ± 0.027
w2 = 0.2793 | 0.847 ± 0.068
w2 = 0.3676 | 1.38 ± 0.11
w2 = 0.4366 | 1.92 ± 0.15
w2 = 0.5375 | 2.8 ± 0.22
w2 = 0.6078 | 3.3 ± 0.26
w2 = 0.6595 | 3.51 ± 0.28
w2 = 0.6992 | 3.6 ± 0.29
w2 = 0.7561 | 3.57 ± 0.29
w2 = 0.7999 | 3.4 ± 0.27
w2 = 0.88 | 2.93 ± 0.23
w2 = 0.9 | 2.73 ± 0.22
w2 = 0.91 | 2.38 ± 0.19
w2 = 0.925 | 2.13 ± 0.17
w2 = 0.933 | 1.94 ± 0.15
w2 = 0.943 | 1.71 ± 0.14
w2 = 0.954 | 1.47 ± 0.12
w2 = 0.967 | 1.13 ± 0.09
w2 = 0.982 | 0.677 ± 0.054

Cc1cccc[n+]1C.O=C[O-] [1,2-dimethylpyridinium formate] + O
[1]
Conditions | electrical conductivity [S/m]
w2 = 0 | 1.04 ± 0.083
w2 = 0.051 | 1.37 ± 0.11
w2 = 0.0908 | 1.64 ± 0.13
w2 = 0.1665 | 2.21 ± 0.18
w2 = 0.2854 | 3.27 ± 0.26
w2 = 0.333 | 3.77 ± 0.3
w2 = 0.4114 | 4.52 ± 0.36
w2 = 0.4441 | 4.74 ± 0.38
w2 = 0.4997 | 5.26 ± 0.42
w2 = 0.5451 | 5.56 ± 0.44
w2 = 0.6151 | 5.98 ± 0.48
w2 = 0.6549 | 6.16 ± 0.49
w2 = 0.7056 | 6.23 ± 0.5
w2 = 0.7617 | 6 ± 0.48
w2 = 0.7998 | 5.68 ± 0.45
w2 = 0.857 | 4.85 ± 0.39
w2 = 0.8748 | 4.51 ± 0.36
w2 = 0.8888 | 4.21 ± 0.34
w2 = 0.8999 | 3.93 ± 0.31
w2 = 0.909 | 3.7 ± 0.3

C1CC[NH2+]C1.O=[N+]([O-])[O-] [pyrrolidinium nitrate]
[2]
Conditions | electrical conductivity [S/m] | viscosity [mPa·s]
– | 5.01 ± 0.4 | 5.2

O [water] + C1CC[NH2+]C1.CCCCCCCCC(=O)[O-]
Conditions | electrical conductivity [S/m]
[1], w1 = 1 | 0.0001 ± 0.0001

O [water] + Cc1ccc[n+](C)c1C.O=C[O-]
Conditions | electrical conductivity [S/m]
[1], w1 = 1 | 0.0001 ± 0.0001

Cc1ccc[n+](C)c1C.O=C[O-] [1,2,3-trimethylpyridinium formate]
[2]
Conditions | electrical conductivity [S/m] | mass density [kg/m3] | viscosity [mPa·s]
– | 0.68 ± 0.054 | 1167.6 ± 60 | 10

C1CC[NH2+]C1.CCCCCCC(=O)[O-] [pyrrolidinium heptanoate]
[2]
Conditions | electrical conductivity [S/m] | mass density [kg/m3]
– | 0.186 ± 0.015 | 972.1 ± 60

O [water] + C1CC[NH2+]C1.O=[N+]([O-])[O-]
Conditions | electrical conductivity [S/m]
[1], w1 = 1 | 0.0001 ± 0.0001
